Source: US20250129104A1, “7H-PYRROLO[2,3-D]PYRIMIDINES AND PREPARATION AND USES THEREOF” (BioSplice Therapeutics, Inc., priority 2021, published 2025)
pEC50: −log10 of the molar value.

Biological target: recombinant DYRK1A kinase (Homo sapiens (Human), UniProt Q13627)
Experiment: DYRK1A kinase assay (Ser/Thr 18 peptide Z-lyte FRET assay)
Assay type: biochemical
Conditions: DYRK1A kinase activity; 15 μM ATP, 1 h room temperature; method text calls the value IC50
Procedure: Representative compounds were screened using the assay procedure for DYRK1A kinase activity as described below.
Each compound was dissolved in DMSO as a 10 mM stock and used to prepare compound source plates. Serial dilution (1:3, 11-point dose-response curves from 10 μM to 0.00016 μM) and compound transfer was performed using the ECHO 550 (Labcyte, Sunnyvale, CA) into 1536-well black-walled round bottom plates (Corning).
The DYRK1A kinase assay was run using the Ser/Thr 18 peptide Z-lyte assay kit according to manufacturer's instructions (Life Technologies—a Division of Thermo-Fisher). This is a non-radioactive assay using fluorescence resonance energy transfer (FRET) between coumarin and fluorescein to detect kinase activity which is represented as a ratio of coumarin emission/fluorescein emission.
Briefly, recombinant DYRK1A kinase, ATP and Ser/Thr peptide 18 were prepared in 1× Kinase buffer to final concentrations of 0.25 μg/mL, 15 μM, and 4 μM respectively. The mixture was allowed to incubate with the representative compounds for one hour at room temperature. All reactions were performed in duplicate. Unphosphorylated (“0% Control”) and phosphorylated (“100% control”) forms of Ser/Thr 18 served as control reactions. Additionally, an 11-point dose-response curve of Staurosporine (1 uM top) was run to serve as a positive compound control.
After incubation, Development Reagent A was diluted in Development Buffer then added to the reaction and allowed to further incubate for one hour at room temperature. The plate was read at Ex 400 Em […] to detect the coumarin signal and Ex 400 Em 520 to measure the signal (EnVision Multilabel Plate Reader, PerkinElmer).
The Emission ratio (Em) was calculated as a ratio of the coumarin (C) emission signal (at 445 nm)/Fluorescein (F) emission signal (at 520 nm). The percent phosphorylation was then calculated using the following formula: [1−((Em ratio×F100%)−C100%)/((C0%−C100%)+(Em ratio×(F100%−F0%)))]. Dose-response curves were generated, and inhibitory concentration (IC50) values were calculated using non-linear regression curve fit in the Dotmatics' Studies Software (Bishops Stortford, UK).

| Compound | pEC50 |
| --- | --- |
| OCc1cnc2c(F)cc(-c3c[nH]c4nc(C5CC5)ncc34)cn12 [Compound 363, (6-(2-Cyclopropyl-7H-pyrrolo[2,3-d]pyrimidin-5-yl)-8-fluoroimidazo[1,2-a]pyridin-3-yl)methanol] | 7.38 |
| CN1CCC(c2cnc3c(F)cc(-c4c[nH]c5nc(C6CC6)ncc45)cn23)CC1 [Compound 403, 2-Cyclopropyl-5-(8-fluoro-3-(1-methylpiperidin-4-yl)imidazo[1,2-a]pyridin-6-yl)-7H-pyrrolo[2,3-d]pyrimidine] | 6.76 |
| C[C@H](Nc1ncc2c(-c3cnc4nccn4c3)c[nH]c2n1)C(F)(F)F [Compound 464, (S)-5-(Imidazo[1,2-a]pyrimidin-6-yl)-N-(1,1,1-trifluoropropan-2-yl)-7H-pyrrolo[2,3-d]pyrimidin-2-amine] | 8.02 |
| CC(C)(C)Cc1ncc2c(-c3cnc4nccn4c3)c[nH]c2n1 [Compound 490, 5-(Imidazo[1,2-a]pyrimidin-6-yl)-2-neopentyl-7H-pyrrolo[2,3-d]pyrimidine] | 6.82 |
| Cn1cc2cc(-c3c[nH]c4nc(NCC(C)(C)F)ncc34)ccc2n1 [Compound 492, N-(2-Fluoro-2-methylpropyl)-5-(2-methyl-2H-indazol-5-yl)-7H-pyrrolo[2,3-d]pyrimidin-2-amine] | 6.91 |
| Cc1nc2c(F)cc(-c3c[nH]c4nc(NCC5CN(C)C5)ncc34)cc2n1C [Compound 493, 5-(4-Fluoro-1,2-dimethyl-1H-benzo[d]imidazol-6-yl)-N-((1-methylazetidin-3-yl)methyl)-7H-pyrrolo[2,3-d]pyrimidin-2-amine] | 5.33 |
| Cc1nc2c(F)cc(-c3c[nH]c4nc(N5CCC5)ncc34)cc2n1C(C)C [Compound 494, 2-(Azetidin-1-yl)-5-(4-fluoro-1-isopropyl-2-methyl-1H-benzo[d]imidazol-6-yl)-7H-pyrrolo[2,3-d]pyrimidine] | 6.64 |
| Cc1nc2c(F)cc(-c3c[nH]c4nc(NCC(C)C)ncc34)cc2n1C(C)C [Compound 506, 5-(4-Fluoro-1-isopropyl-2-methyl-1H-benzo[d]imidazol-6-yl)-N-isobutyl-7H-pyrrolo[2,3-d]pyrimidin-2-amine] | 8.77 |
| Cc1nc2c(F)cc(-c3c[nH]c4nc(NCC5(F)CCCCC5)ncc34)cc2n1C(C)C [Compound 526, 5-(4-Fluoro-1-isopropyl-2-methyl-1H-benzo[d]imidazol-6-yl)-N-((1-fluorocyclohexyl)methyl)-7H-pyrrolo[2,3-d]pyrimidin-2-amine] | 8.07 |
| Cc1nc2c(F)cc(-c3c[nH]c4nc(NCC5CCN(C)CC5)ncc34)cc2n1C(C)C [Compound 529, 5-(4-Fluoro-1-isopropyl-2-methyl-1H-benzo[d]imidazol-6-yl)-N-((1-methylpiperidin-4-yl)methyl)-7H-pyrrolo[2,3-d]pyrimidin-2-a] | 8.03 |
| Cc1nc2cc(F)c(-c3c[nH]c4nc(C5CC5)ncc34)cc2n1C(C)C [Compound 539, 2-Cyclopropyl-5-(5-fluoro-1-isopropyl-2-methyl-1H-benzo[d]imidazol-6-yl)-7H-pyrrolo[2,3-d]pyrimidine] | 7.39 |
| Cc1nc2ccc(-c3c[nH]c4nc(C5CC5)ncc34)c(F)c2n1C(C)C [Compound 540, 2-Cyclopropyl-5-(7-fluoro-1-isopropyl-2-methyl-1H-benzo[d]imidazol-6-yl)-7H-pyrrolo[2,3-d]pyrimidine] | 7.59 |
| Cc1nc2ncc(-c3c[nH]c4nc(CC(C)C)ncc34)cc2n1C(C)C [Compound 585, 6-(2-Isobutyl-7H-pyrrolo[2,3-d]pyrimidin-5-yl)-1-isopropyl-2-methyl-1H-imidazo[4,5-b]pyridine] | 7.75 |
| Cc1nc2ncc(-c3c[nH]c4nc(NCC(C)C)ncc34)cc2n1C(C)C [Compound 594, N-Isobutyl-5-(1-isopropyl-2-methyl-1H-imidazo[4,5-b]pyridin-6-yl)-7H-pyrrolo[2,3-d]pyrimidin-2-amine] | 8.25 |
| Cc1nc2cnc(-c3c[nH]c4ncncc34)cc2n1C(C)C [Compound 627, 1-Isopropyl-2-methyl-6-(7H-pyrrolo[2,3-d]pyrimidin-5-yl)-1H-imidazo[4,5-c]pyridine] | 7.15 |
| Cc1nc2cnc(-c3c[nH]c4nc(C5CCC5)ncc34)cc2n1C(C)C [Compound 628, 6-(2-Cyclobutyl-7H-pyrrolo[2,3-d]pyrimidin-5-yl)-1-isopropyl-2-methyl-1H-imidazo[4,5-c]pyridine] | 6.10 |
| Cc1nc2ccc(-c3c[nH]c4nc(NCC(C)(C)F)ncc34)nc2n1CC(F)F [Compound 643, 5-(3-(2,2-Difluoroethyl)-2-methyl-3H-imidazo[4,5-b]pyridin-5-yl)-N-(2-fluoro-2-methylpropyl)-7H-pyrrolo[2,3-d]pyrimidin-2-amine] | 7.37 |
| Cc1nc2ccc(-c3c[nH]c4nc(C5CC5)ncc34)nc2n1C(C)C [Compound 676, 5-(2-Cyclopropyl-7H-pyrrolo[2,3-d]pyrimidin-5-yl)-3-isopropyl-2-methyl-3H-imidazo[4,5-b]pyridine] | 8.82 |
| CC(C)(C)Nc1ncc2c(-c3ccc4ncnn4c3)c[nH]c2n1 [Compound 718, 5-([1,2,4]Triazolo[1,5-a]pyridin-6-yl)-N-(tert-butyl)-7H-pyrrolo[2,3-d]pyrimidin-2-amine] | 6.38 |
| c1nc2ccc(-c3c[nH]c4nc(C5CC5)ncc34)cn2n1 [Compound 720, 6-(2-Cyclopropyl-7H-pyrrolo[2,3-d]pyrimidin-5-yl)-[1,2,4]triazolo[1,5-a]pyridine] | 6.70 |
| c1nc2ccc(-c3c[nH]c4nc(C5CCC5)ncc34)cn2n1 [Compound 721, 6-(2-Cyclobutyl-7H-pyrrolo[2,3-d]pyrimidin-5-yl)-[1,2,4]triazolo[1,5-a]pyridine] | 6.07 |
| CC(C)(C)CNc1ncc2c(-c3ccc4ncnn4c3)c[nH]c2n1 [Compound 728, 5-([1,2,4]Triazolo[1,5-a]pyridin-6-yl)-N-neopentyl-7H-pyrrolo[2,3-d]pyrimidin-2-amine] | 7.32 |
| FC(F)(F)CNc1ncc2c(-c3ccc4ncnn4c3)c[nH]c2n1 [Compound 733, 5-([1,2,4]Triazolo[1,5-a]pyridin-6-yl)-N-(2,2,2-trifluoroethyl)-7H-pyrrolo [2,3-d]pyrimidin-2-amine] | 7.64 |
| C[C@H](Nc1ncc2c(-c3ccc4ncnn4c3)c[nH]c2n1)C(F)(F)F [Compound 735, (S)-5-([1,2,4]Triazolo[1,5-a]pyridin-6-yl)-N-(1,1,1-trifluoropropan-2-yl)-7H-pyrrolo[2,3-d]pyrimidin-2-amine] | 7.10 |
| FC(F)(F)CCNc1ncc2c(-c3ccc4ncnn4c3)c[nH]c2n1 [Compound 736, 5-([1,2,4]Triazolo[1,5-a]pyridin-6-yl)-N-(3,3,3-trifluoropropyl)-7H-pyrrolo [2,3-d]pyrimidin-2-amine] | 7.34 |
| FC(F)(CNc1ncc2c(-c3ccc4ncnn4c3)c[nH]c2n1)C1CC1 [Compound 743, 5-([1,2,4]Triazolo[1,5-a]pyridin-6-yl)-N-(2-cyclopropyl-2,2-difluoroethyl)-7H-pyrrolo[2,3-d]pyrimidin-2-amine] | 8.72 |
| CN1CCN(c2cc(Nc3ncc4c(-c5ccc6ncnn6c5)c[nH]c4n3)ccn2)CC1 [Compound 755, 5-([1,2,4]Triazolo[1,5-a]pyridin-6-yl)-N-(2-(4-methylpiperazin-1-yl)pyridin-4-yl)-7H-pyrrolo[2,3-d]pyrimidin-2-amine] | 8.35 |
